Here are results for six compounds from patent US5840684A, “Glycopeptide antibiotic derivatives” (Eli Lilly and Company, priority 1995, dated 1998).

In brackets after ≈: the same amount, converted by molar mass.

The subject of test [1] is Staphylococcus aureus S13E. Type of test: cell-based. The method, then: (§1) The MIC's were determined using a standard broth micro-dilution assay.
The test system of test [2] is Staphylococcus aureus SA1199B. The format is cell-based. The protocol: as §1
Test [3] concerns Entercoccus faecium 180-1. Briefly: broth micro-dilution MIC. Type of test: cell-based. The protocol: as §1
In general terms: In broth dilution the organism is exposed to a series of concentrations in liquid medium.

In another test the test system is Entercoccus faecium 276. Put plainly: broth micro-dilution MIC. The format is cell-based. The protocol:
as §1

Test [4] has as its system Staphylococcus aureus 446. Put plainly: broth micro-dilution MIC. Type of test: cell-based. The method, then:
as §1

Test [5] relates to Staphylococcus aureus 447. Put plainly: broth micro-dilution MIC. Type of test: cell-based. The protocol: as §1
The subject of test [6] is Staphylococcus aureus 489. Briefly: broth micro-dilution MIC. The format is cell-based. The method, then:
as §1

Test [7] has as its system Staphylococcus aureus SA1199A. Put plainly: broth micro-dilution MIC. The format is cell-based. The method, then:
as §1

The subject of test [8] is Staphylococcus aureus SA1199. Briefly: broth micro-dilution MIC. The format is cell-based. The method, then: as §1
The subject of test [9] is Staphylococcus aureus X400. Briefly: broth micro-dilution MIC. The format is cell-based. The protocol: as §1
Test [10] deals with Staphylococcus aureus X778. Briefly: broth micro-dilution MIC. The format is cell-based. The protocol:
as §1

For test [11], the system named is Streptococcus pyogenes C203. Briefly: broth micro-dilution MIC. The format is cell-based. The protocol:
as §1

For another test, the system named is Entercoccus faecium 180. Put plainly: broth micro-dilution MIC. The format is cell-based. To be noted: Entercoccus faecium 180. The protocol: (§2) The formula I compounds have in vitro and in vivo activity against Gram-positive pathogenic bacteria. The MIC's were determined using a standard broth micro-dilution assay.
For another test, the system named is Entercoccus faecium 2041. Put plainly: broth micro-dilution MIC. The settings on record: Entercoccus faecium 2041. Type of test: cell-based. The method, then:
as §2

Test [12] concerns Enterococcus gallinarum 245. Briefly: broth micro-dilution MIC. Type of test: cell-based. To be noted: Enterococcus gallinarum 245. The protocol:
as §2

In test [13] the test system is Staphylococcus epidermidis 270. Put plainly: broth micro-dilution MIC. Type of test: cell-based. The protocol:
as §2

Test [14] has as its system Staphylococcus haemolyticus 105. Put plainly: broth micro-dilution MIC. The format is cell-based. The method, then:
as §2

Test [15] has as its system Staphylococcus haemolyticus 415. Briefly: broth micro-dilution MIC. The format is cell-based. The protocol:
as §2

For test [16], the system named is Streptococcus pneumoniae P1. Put plainly: broth micro-dilution MIC. Type of test: cell-based. The method, then: as §2
The test system of test [17] is Staphylococcus aureus 491. Briefly: broth micro-dilution MIC. The format is cell-based. The method, then:
as §1

Test [18] concerns vancomycin-resistant enterococci. Put plainly: broth micro-dilution, mean geometric MIC. The format is cell-based, Enterococcus faecium and Enterococcus faecalis. The settings on record: enterococci, 24-hour incubation.
For test [19], the system named is vancomycin-susceptible enterococci. Briefly: broth micro-dilution, mean geometric MIC. The format is cell-based, Enterococcus faecium and Enterococcus faecalis. To be noted: enterococci, 24-hour incubation.

With `CNC(CC(C)C)C(=O)NC1C(=O)NC(CC(N)=O)C(=O)NC2C(=O)NC3C(=O)NC(C(=O)NC(C(=O)O)c4cc(O)cc(O)c4-c4cc3ccc4O)C(OC3CC(C)(N)C(O)C(C)O3)c3ccc(c(Cl)c3)Oc3cc2cc(c3OC2OC(CO)C(O)C(O)C2OC2CC(C)(NCc3cccc(OC(C)=O)c3)C(O)C(C)O2)Oc2ccc(cc2Cl)C1O` (stereo not drawn) [Compound 77], the MIC in [1] was 0.125 µg/mL (≈ 0.0718 µM); in [2] it was 0.125 µg/mL (≈ 0.0718 µM); in test [3], 0.125 µg/mL (≈ 0.0718 µM); in the test on Entercoccus faecium 276, 0.25 µg/mL (≈ 0.144 µM); in test [4], not above 0.06 µg/mL; in [5] it was 1 µg/mL (≈ 0.575 µM). Besides, the minimum inhibitory concentration (MIC) in [6], in test [7], in test [8], in test [9], in test [10] and in test [11] was not above 0.06 µg/mL in each case. For the same compound, the minimal inhibitory concentration (MIC) with Entercoccus faecium 180 was found to be 8 µg/mL (≈ 4.6 µM); against Entercoccus faecium 2041 it was 0.25 µg/mL (≈ 0.144 µM); in test [12], 0.25 µg/mL (≈ 0.144 µM); in test [13] it was 0.5 µg/mL (≈ 0.287 µM); in test [14], 2 µg/mL (≈ 1.15 µM); in test [15], 8 µg/mL (≈ 4.6 µM). The compound also had a minimal inhibitory concentration (MIC) in [16] not above 0.06 µg/mL.

With `CNC(CC(C)C)C(=O)NC1C(=O)NC(CC(N)=O)C(=O)NC2C(=O)NC3C(=O)NC(C(=O)NC(C(=O)O)c4cc(O)cc(O)c4-c4cc3ccc4O)C(OC3CC(C)(N)C(O)C(C)O3)c3ccc(c(Cl)c3)Oc3cc2cc(c3OC2OC(CO)C(O)C(O)C2OC2CC(C)(NCc3ccc4c(c3)CCO4)C(O)C(C)O2)Oc2ccc(cc2Cl)C1O` (stereo not drawn) [Compound 82], the MIC in test [1] is not above 0.06 µg/mL; in test [2], 1 µg/mL (≈ 0.58 µM); in test [3] it was 0.125 µg/mL (≈ 0.0725 µM); in the test with Entercoccus faecium 276, not above 0.06 µg/mL; in test [4], 2 µg/mL (≈ 1.16 µM); in test [5] it was 4 µg/mL (≈ 2.32 µM). Further, the minimal inhibitory concentration (MIC) in test [17] was 1 µg/mL (≈ 0.58 µM); in test [7], 0.5 µg/mL (≈ 0.29 µM); in test [10] it was 0.5 µg/mL (≈ 0.29 µM); in test [11], not above 0.06 µg/mL; against Entercoccus faecium 180, 2 µg/mL (≈ 1.16 µM); against Entercoccus faecium 2041, 0.5 µg/mL (≈ 0.29 µM). For the same compound, the MIC was 0.125 µg/mL (≈ 0.0725 µM) in test [12]; 4 µg/mL (≈ 2.32 µM) in test [13]; 8 µg/mL (≈ 4.64 µM) in test [14]; 8 µg/mL (≈ 4.64 µM) in test [15]; not above 0.06 µg/mL in [16]. Besides, in test [18], the “mean geometric MIC, Vancomycin Resistant Strains” value is 22 µg/mL. The “mean geometric MIC, Vancomycin Sensitive Strains” value in [19] was found to be 0.50 µg/mL.

As for `CNC(CC(C)C)C(=O)NC1C(=O)NC(CC(N)=O)C(=O)NC2C(=O)NC3C(=O)NC(C(=O)NC(C(=O)O)c4cc(O)cc(O)c4-c4cc3ccc4O)C(OC3CC(C)(N)C(O)C(C)O3)c3ccc(c(Cl)c3)Oc3cc2cc(c3OC2OC(CO)C(O)C(O)C2OC2CC(C)(NCc3ccc(O)cc3)C(O)C(C)O2)Oc2ccc(cc2Cl)C1O` (stereo not drawn) [Compound 136], the minimum inhibitory concentration (MIC) in test [1] is not above 0.06 µg/mL; in [2] it was not above 0.06 µg/mL; in test [3], not above 0.06 µg/mL; with Entercoccus faecium 276, not above 0.06 µg/mL; in test [4], not above 0.06 µg/mL; in [5], 2 µg/mL (≈ 1.18 µM). Moreover, the minimum inhibitory concentration (MIC) in test [6], in [7], in test [8], in [9], in test [10] and in [11] was not above 0.06 µg/mL throughout. In addition, the minimum inhibitory concentration (MIC) against Entercoccus faecium 180 was 2 µg/mL (≈ 1.18 µM); in the test with Entercoccus faecium 2041, not above 0.06 µg/mL; in test [12] it was 4 µg/mL (≈ 2.35 µM); in test [13], 1 µg/mL (≈ 0.589 µM); in test [14], 2 µg/mL (≈ 1.18 µM); in [15] it was 4 µg/mL (≈ 2.35 µM). The minimal inhibitory concentration (MIC) in test [16] is not above 0.06 µg/mL. Besides, the “mean geometric MIC, Vancomycin Resistant Strains” value in test [18] was found to be 23 µg/mL. Besides, the “mean geometric MIC, Vancomycin Sensitive Strains” value in [19] was found to be 0.76 µg/mL.

`CNC(CC(C)C)C(=O)NC1C(=O)NC(CC(N)=O)C(=O)NC2C(=O)NC3C(=O)NC(C(=O)NC(C(=O)O)c4cc(O)cc(O)c4-c4cc3ccc4O)C(OC3CC(C)(N)C(O)C(C)O3)c3ccc(c(Cl)c3)Oc3cc2cc(c3OC2OC(CO)C(O)C(O)C2OC2CC(C)(NCC34CC5CC(CC(C5)C3)C4)C(O)C(C)O2)Oc2ccc(cc2Cl)C1O` (stereo not drawn) [Compound 141]: the minimal inhibitory concentration (MIC) in test [2] is 2 µg/mL (≈ 1.15 µM); in test [3], not above 0.06 µg/mL; against Entercoccus faecium 276 it was 0.5 µg/mL (≈ 0.287 µM); in test [4], 2 µg/mL (≈ 1.15 µM); in [5] it was 1 µg/mL (≈ 0.574 µM); in test [17], 0.5 µg/mL (≈ 0.287 µM). The minimal inhibitory concentration (MIC) was not above 0.06 µg/mL in test [7]; 0.5 µg/mL (≈ 0.287 µM) in test [10]; not above 0.06 µg/mL in test [11]; 0.5 µg/mL (≈ 0.287 µM) against Entercoccus faecium 180; not above 0.06 µg/mL with Entercoccus faecium 2041; 4 µg/mL (≈ 2.3 µM) in test [12]. Further, the MIC is 1 µg/mL (≈ 0.574 µM) in test [13], 1 µg/mL (≈ 0.574 µM) in [14], 4 µg/mL (≈ 2.3 µM) in [15] and not above 0.06 µg/mL in test [16]. In addition, the “mean geometric MIC, Vancomycin Resistant Strains” value in test [18] amounted to 8.0 µg/mL.

For `CNC(CC(C)C)C(=O)NC1C(=O)NC(CC(N)=O)C(=O)NC2C(=O)NC3C(=O)NC(C(=O)NC(C(=O)O)c4cc(O)cc(O)c4-c4cc3ccc4O)C(OC3CC(C)(N)C(O)C(C)O3)c3ccc(c(Cl)c3)Oc3cc2cc(c3OC2OC(CO)C(O)C(O)C2OC2CC(C)(NCc3ccc(NC(=O)c4ccc(F)cc4)cc3)C(O)C(C)O2)Oc2ccc(cc2Cl)C1O` (stereo not drawn) [Compound 193], the minimum inhibitory concentration (MIC) in test [1] was not above 0.06 µg/mL; in test [3] it was not above 0.06 µg/mL; in the test with Entercoccus faecium 276, not above 0.06 µg/mL; in test [4], 0.5 µg/mL (≈ 0.275 µM); in test [5], not above 0.06 µg/mL; in [17], not above 0.06 µg/mL. Also, the minimum inhibitory concentration (MIC) in [7] is not above 0.06 µg/mL; in test [10], not above 0.06 µg/mL; in test [11] it was not above 0.06 µg/mL; against Entercoccus faecium 180, not above 0.06 µg/mL; with Entercoccus faecium 2041, not above 0.06 µg/mL; in [12], 1 µg/mL (≈ 0.55 µM). In addition, the results for the MIC in test [14], in test [15] and in test [16] were 0.5 µg/mL (≈ 0.275 µM), 1 µg/mL (≈ 0.55 µM) and not above 0.06 µg/mL, respectively. Also, the “mean geometric MIC, Vancomycin Resistant Strains” value in test [18] came out at 2 µg/mL. For the same compound, the “mean geometric MIC, Vancomycin Sensitive Strains” value in [19] was 0.072 µg/mL.

On to `CNC(CC(C)C)C(=O)NC1C(=O)NC(CC(N)=O)C(=O)NC2C(=O)NC3C(=O)NC(C(=O)NC(C(=O)O)c4cc(O)cc(O)c4-c4cc3ccc4O)C(OC3CC(C)(N)C(O)C(C)O3)c3ccc(c(Cl)c3)Oc3cc2cc(c3OC2OC(CO)C(O)C(O)C2OC2CC(C)(NCc3sccc3-c3cccs3)C(O)C(C)O2)Oc2ccc(cc2Cl)C1O` (stereo not drawn) [Compound 238], for which the MIC in test [1] was 0.125 µg/mL (≈ 0.0706 µM); in test [2], 0.5 µg/mL (≈ 0.282 µM); in test [3], not above 0.06 µg/mL; against Entercoccus faecium 276, not above 0.06 µg/mL; in test [4], 1 µg/mL (≈ 0.565 µM); in test [5] it was 0.5 µg/mL (≈ 0.282 µM). For the same compound, the MIC in [6] was 0.5 µg/mL (≈ 0.282 µM); in [7], not above 0.06 µg/mL; in test [8] it was 0.5 µg/mL (≈ 0.282 µM); in [9], 1 µg/mL (≈ 0.565 µM); in test [10], 0.5 µg/mL (≈ 0.282 µM); in [11] it was not above 0.06 µg/mL. Also, the MIC in the test with Entercoccus faecium 180 is 0.125 µg/mL (≈ 0.0706 µM); against Entercoccus faecium 2041, not above 0.06 µg/mL; in test [12] it was not above 0.06 µg/mL; in [13], 0.5 µg/mL (≈ 0.282 µM); in test [14] it was 0.5 µg/mL (≈ 0.282 µM); in [15], 2 µg/mL (≈ 1.13 µM). This compound also gave a minimum inhibitory concentration (MIC) in test [16] not above 0.06 µg/mL. In [18], the “mean geometric MIC, Vancomycin Resistant Strains” value worked out at 1.4 µg/mL. For the same compound, the “mean geometric MIC, Vancomycin Sensitive Strains” value in test [19] was 0.14 µg/mL.

Usually MIC stands for the lowest concentration found to suppress growth. Lower therefore signals greater potency.
